These results are taken from patent US11213527B2, “Inhibitory effect of low molecular weight compound on cancer and fibrosis” (NATIONAL UNIVERSITY CORPORATION TOTTORI UNIVERSITY, priority 2014, dated 2022).

For one assay, the system named is liver fibrosis. In words: Liver disease model mice (carbon tetrachloride-induced liver fibrosis). Particulars: glycyrrhizin 150 mg/kg, IC-2 10.6 or 21.2 mg/kg intraperitoneally 3 times a week for 4 weeks, vs vehicle. The assay is classed as in vivo, C57BL/6 male mice. The protocol: First, 7-week-old C57BL/6 male mice (Japan SLC, Shizuoka, Japan) were subject to 1-week preparatory rearing. Among them, healthy mice were used. The mice were housed in an animal cage at a room temperature of 22±1° C. and a humidity of 50±5% throughout the preparatory rearing and experimental period and were given ad libitum access to food and water.
A microsyringe (ITO CORPORATION, Shizuoka, Japan) was used to intraperitoneally administer carbon tetrachloride (CCl4: Wako Pure Chemical Industries, Ltd., Osaka, Japan) at 0.2 ml/kg, 3 times a week, for 4, 6, or 8 weeks. Carbon tetrachloride was dissolved into cone oil (Wako Pure Chemical Industries, Ltd.) at a concentration of 10%. The resulting solution was used. After this carbon tetrachloride solution was administered for 4 weeks, the mice were divided into a vehicle administration group, a glycyrrhizin administration group, an ICG-001 administration group, and an IC-2 administration group. Then, a microsyringe was used to intraperitoneally administer, 3 times a week for 4 weeks, carbon tetrachloride and a drug solution prepared in accordance with the following process. Note that the carbon tetrachloride and the drug solution were alternately administered with one-day interval.
Glycyrrhizin (TOKYO CHEMICAL INDUSTRY CO., LTD., Tokyo, Japan) was dissolved in physiological saline. The solution was prepared at a concentration of 30 mg/ml while the pH was adjusted to 7.0 with 4 M NaOH liquid. IC-2 and ICG-001 (AdooQ BioScience, California, USA) were each dissolved in a WellSolve (Celeste Corporation, Tokyo, Japan) at a concentration of 40 mg/ml and 10 mg/ml, respectively. Next, the mixture was heated for 10 min in a hot water bath at 60° C. and was then completely dissolved. A 9-fold volume of physiological saline was added to the WellSolve solution in which the above drugs had each been dissolved. […] Note that an IC-2 dosage was determined on the basis of an effective concentration in vitro. […]

The next assay deals with cancer stem cells. Conditions: Fbxw7-deficient model mice; cited from earlier work.

For the compound `CC1(C)[C@@H](O[C@H]2O[C@H](C(=O)O)[C@@H](O)[C@H](O)[C@H]2O[C@@H]2O[C@H](C(=O)O)[C@@H](O)[C@H](O)[C@H]2O)CC[C@]2(C)[C@H]3C(=O)C=C4[C@@H]5C[C@@](C)(C(=O)O)CC[C@]5(C)CC[C@@]4(C)[C@]3(C)CC[C@@H]12` [glycyrrhizin, Glycyrrhizin, reference compound], the content of hydroxyproline entry in the assay on liver fibrosis is reported as “reduced content of hydroxyproline”.
Consider `Cc1ccc(NC(=O)c2ccc(CN3CCN(C)CC3)cc2)cc1Nc1nccc(-c2cccnc2)n1` [imatinib], for which, in the assay on cancer stem cells, the “killing of cancer stem cells” value is reported as “cancer stem cells were killed”.
